The values that follow come from patent publication US11780814B2, “Small molecules for treating cancer, inhibiting chemokine activity and/or inducing cell death” (AlonBio Ltd., priority 2019, dated 2023).

The subject of one test is OVCAR8 cells. Description: Cell cycle analysis by 7-AAD, Taxol-sensitive ovarian cancer cells. The following applies: lowest taxol concentration of 3.75 nM; 24 hours; FIG. 16. In kind it is cell-based.
In another test the test system is HEY-T30 cells. Description: Cell cycle analysis by 7-AAD, Taxol-resistant ovarian cancer cells. In kind it is cell-based. The following applies: 24 hours. The protocol: Cells (1×10^6 cells/ml) were cultured in 12-well plates in 10% FCS. After 24 hours the medium was replaced by 1% FCS and BKT300-N1 or Taxol (250-3.75 nM) were added.
24 hours incubation, cells were harvested and washed with PBS. The pellet was fixed by adding 200 μl Fix/Perm buffer and vortexed. The fixed cells were incubated for 20 minutes at 4° C. and then 1 ml of Perm/Wash buffer was added. Following centrifugation, supernatant was removed and cells were resuspended in 100 μl Perm/Wash plus 4 μl of 7-AAD and vortexed. The cells were then incubated in the dark for 20 minutes at 4° C. and thereafter 300 μl of PBS was added. Flow cytometry analysis was performed by collecting 20,000 events per sample. Analysis was done according to the distribution of cells in three major phases of the cycle: G0/G1 (blue), S (purple), G2/M (green), and apoptotic cells (red), as shown in FIGS. 15-18C.
All results are expressed as average ±SD. Statistical differences were determined by an analysis of two-tailed Student's t test. Values of p<0.05 were considered to be statistically significant.
Cells were incubated in different doses of Taxol (30, 15, 7.5, 3.75 nM) for 24 hours and were thereafter analyzed as described hereinabove.
Next, the effect of BKT300-N1 on the taxol resistance cells was tested. Both ovarian cancer cell lines were incubated with BKT300-N1 (250, 125, 62.5, 31.25, 15.6 nM). For comparison, the effect of the same amounts of Taxol was also tested.

The test system of the next test is CXCR4. Particulars: animal studies, cited from earlier work.
The test system of test [1] is U937 cells. Description: Cell cycle analysis by 7-AAD staining. The class given is cell-based, human. The following applies: 24 hours. The protocol: (§1) To evaluate the effects of BKT300-N1 on cell cycle distribution 7-Aminoactinomycin D (7-AAD) protocol was used. Cells were seeded in 24 wells of microplates at a density of 1×10^6 Cells/well and exposed to different concentrations of the tested compound, BKT300-N1 or BKT300-3-C5, for 24 or 48 hours at 37° C. in a CO2 incubator. After incubation time, cells were collected and washed with cold PBS. Cells were fixed for 20 minutes at 4° C. and processed according to the 7-AAD labeling protocol. The intensity of dye in staining cells was measured by flow cytometry. Cell cycle analysis calculated G0/G1, G2/M and sub-G0 phases from a 7-AAD area histogram.
Using the above protocol, U937 cells were treated with different concentrations of BKT300-N1 or BKT300-3-C5 (0.05, 0.1, 0.5 and 1 μM) for 24 hours and then cell cycle phases were analyzed by flow cytometry using 7-AAD.

Test [2] deals with cleaved caspase-3 in U937 cells. Description: Western blot for cleaved caspase-3. The class given is cell-based, human. The following applies: 0.1, 0.5 and 1 μM; 24 hours; FIGS. 7A-7B. As to the method:
The role of caspase-3 (CASP3) in the BKT300-N1-induced apoptosis of AML cell lines U937 was tested. Cells were incubated with BKT300-N1 (0.1, 0.5 and 1 μM) for 24 hours, and were then tested for the presence of cleaved caspase 3 using mAb against human cleaved caspase 3 by Western blot assay.
Background: A western blot detects proteins with antibodies after separation by electrophoresis.

The subject of test [3] is human non-small-cell lung (CTG-0198) cancer. Description: Patient derived xenograft (PDX) tumor growth, lung. Particulars: SC every 12 hours, 5 mg or 10 mg daily dose; compared to vehicle control; FIG. 13B. The class given is in vivo, mice. As to the method:
(§2) In additional experiments, the in vivo efficacy of BKT300-N1, on the growth of subcutaneous, low passage Champions' TumourGraft® patient derived xenograft (PDX) models of human non-small-cell lung (CTG-0198), colorectal (CTG-0923) and ovarian (CTG-1086) cancer in female immunocompromised mice was tested.
(§3) Athymic Nude-Foxn1nu (Immunocompromised) female mice aged 6-8 weeks were implanted with 1-1.5 cm^3 harvested tumors unilaterally on the left flank. When the tumors reached an average volume of 200 cubic millimeters, control group was treated daily with a vehicle and treatment group was treated with either 2.5 mg per mice per injection (low dose) or 5 mg per mice per injection (hight dose) of BKT300-N1. The control group was subcutaneously (SC) injected with the vehicle (Cremophore EL and Ethanol 50%/50% volume/volume) diluted 1:6 with 0.9% Sodium Chloride.
(§4) For the low dose treatment group, a stock solution of 30 mg/mL BKN300-N1 was preapared in the vehicle and further diluted 1:6 with 0.9% Sodium Chloride, to a final concentration of 5 mg/mL. Animals received a 0.5 mL subcutaneously (SC) injection every 12 hours (for a 2.5 mg/injection=5 mg daily dose).
(§5) For the high dose treatment group, a stock solution of 30 mg/mL BKN300-N1 was preapared in the vehicle and further diluted 1:3 with 0.9% Sodium Chloride, to a final concentration of 10 mg/mL. […]
(In general: In xenograft studies the graft and the host belong to different species.)

Test [4] concerns human colorectal (CTG-0923) cancer. Description: Patient derived xenograft (PDX) tumor growth, colorectal. The class given is in vivo, mice. Particulars: SC every 12 hours, 5 mg or 10 mg daily dose; compared to vehicle control; FIG. 13C. The protocol:
as §2, §3, §4, §5

Another test deals with H69 cells. Description: Cell cycle analysis by 7-AAD staining. The following applies: different concentrations; 48 hours; FIG. 9. The class given is cell-based. The protocol:
as §1
Using the above protocol, H69 cells were treated with different concentrations of BKT300-N1 for 48 hours and then cell cycle phases were analyzed by flow cytometry using 7-AAD. Cells were gated according to the cells cycle phase: P1 for G0/G1 phase; P2-apoptotic cells in subG0 phase; and P3 for G2/M phase.

The subject of test [5] is U937 cells. Description: Annexin-V/PI apoptosis assay by flow cytometry. In kind it is cell-based, human. The following applies: 25-1000 nM, 24 hours, compared to BKT300-3-C5. As to the method:
Apoptosis was determined by flow cytometry analysis using Annexin-V kit. U937 cancer cells were incubated in RPMI cell medium with 1% fetal calf serum (FCS) at a concentration of 1×10^6 cells/well at a final volume of 1 ml in 24-well plate. The tested compound (BKT300-N1 or BKT300-3-C5) was added to the cells at the indicated concentrations. After 24 hours incubation, medium and cells were collected and centrifuged, then stained with Annexin-V and propidium iodide (PI) kit according to manufacturer's instructions. The numbers of viable cells (Annexin-V negative/PI negative); early apoptotic cells (Annexin-V positive/PI negative); late apoptosis cells (Annexin-V positive/PI positive) and necrotic cells (Annexin-V negative/PI positive) were then evaluated by flow cytometry (FACS).

The test system of test [6] is human ovarian (CTG-1086) cancer. Description: Patient derived xenograft (PDX) tumor growth, ovarian. The class given is in vivo, mice. Particulars: SC every 12 hours, 5 mg or 10 mg daily dose; compared to vehicle control; FIG. 13A. As to the method:
as §2, §3, §4, §5

The next test deals with SDF-1 (Homo sapiens, UniProt P48061). Description: Transwell migration assay of Jurkat cells towards SDF-1. The class given is cell-based. Particulars: 0.5 μM, 1 μM, or 5 μM; 100 ng/ml SDF-1; 3 hours; FIG. 2. The protocol: 600 μl of RPMI medium containing 1% fetal calf serum (FCS) was added to the lower chambers of Transwell® transmigration plates, supplemented with 100 ng/ml of SDF-1. BKT300-N1 was added to the lower chambers at the indicated concentration, except in control samples. The SDF-1 was incubated with BKT300-N1 for 30 minutes at room temperature before the initiation of the migration assay. Following 30 minutes of incubation 2×10^5 Jurkat cells were added to the upper chambers of the transmigration plates in a total volume of 100 μl. Cells which migrated within 3 hours to the bottom chamber of the Transwell® plates were counted using a FACScalibur™ flow cytometer.
SDF-1, sequence (P48061 22-93, species assumed): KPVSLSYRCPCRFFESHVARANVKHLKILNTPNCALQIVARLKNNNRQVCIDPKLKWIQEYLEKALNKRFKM

The subject of another test is HCC SNU449 cells. Description: Scratch assay (IncuCyte), cell invasion and migration. In kind it is cell-based, human. As to the method: Scratch assay was performed to assess the effects of BKT300-N1 compared to that of BKT300-3-C5 on cell invasion and migration. This system measures scratch closure in real time and automatically calculates the relative wound density and wound width within the initially-vacant area at each time point. The relative wound density is the ratio of the occupied area to the total area of the initial scratched region.
Cells were plated on 96-well Image-lock plates (Essen Bioscience) and grown overnight to form a spatially uniform monolayer.
Scratches were made by using a 96-pin tool WoundMaker™ (Essen BioScience) to create uniform, reproducible scratches in all the wells of a 96-well plate. After creating the scratch, the medium was aspirated and the wells are washed twice with fresh medium to remove any cells from the scratched area. Following the washes, fresh medium containing different concentrations of the tested compound was added to the wells. Once the fresh medium is added, the plate was placed into the IncuCyte ZOOM™ apparatus and images of the collective cell spreading are recorded every 4 hours for a total duration of 60 hours.
Data processing and analysis were done using the IncuCyte S3 Live-cells Analysis System.
The scratch assay was performed using HCC SNU449 cells. The cells were scratched and incubated with 0.05, 0.1, 0.5, 1 and 10 μM of BKT300-N1 or BKT300-3-C5.

For the next test, the system named is cancer cells. Particulars: described in WO 2017/103931; cited from earlier work.
Where [7] appears, read: all tested concentrations (0.05, 0.1, 0.5 and 1 μM), FIG. 8A.

Description for OVCAR8 cells: Cells (1×10^6 cells/ml) were cultured in 12-well plates in 10% FCS. […] 24 hours incubation, cells were harvested and washed with PBS. The pellet was fixed by adding 200 μl Fix/Perm buffer and vortexed. The fixed cells were incubated for 20 minutes at 4° C. and then 1 ml of Perm/Wash buffer was added. Following centrifugation, supernatant was removed and cells were resuspended in 100 μl Perm/Wash plus 4 μl of 7-AAD and vortexed. The cells were then incubated in the dark for 20 minutes at 4° C. and thereafter 300 μl of PBS was added. Flow cytometry analysis was performed by collecting 20,000 events per sample. […] All results are expressed as average ±SD. Statistical differences were determined by an analysis of two-tailed Student's t test. Values of p<0.05 were considered to be statistically significant. Cells were incubated in different doses of Taxol (30, 15, 7.5, 3.75 nM) for 24 hours and were thereafter analyzed as described hereinabove.

As to `CC(=O)O[C@H]1C(=O)[C@@]2(C)[C@H]([C@H](OC(=O)c3ccccc3)[C@]3(O)C[C@H](OC(=O)[C@H](O)[C@@H](NC(=O)c4ccccc4)c4ccccc4)C(C)=C1C3(C)C)[C@]1(OC(C)=O)CO[C@@H]1C[C@@H]2O` [Taxol, reference compound], the “effect on cell cycle” value with OVCAR8 cells is reported as “effect on cell cycle was already evident”; in the test on HEY-T30 cells (Taxol 30, 15, 7.5, 3.75 nM, FIG. 15), “no effect on cell cycle”. The “effects on dead cells, G0/G1 phase and G2/M phase” value with HEY-T30 cells (any of the tested concentrations (250, 125, 62.5, 31.25, 15.6 nM), FIGS. 18A-18C) is recorded as “no significant effects”.
Turning to `c1cc(CN2CCCNCCNCCCNCC2)ccc1CN1CCCNCCNCCCNCC1` [plerixafor], the “recurrence of glioblastoma associated with vasculogenesis” value in the test on CXCR4 (Kioi et al. 2010) is “reduce recurrence of glioblastoma”. The metastasis result with CXCR4 (Smith et al. 2004) is listed as “reduce metastasis”. Also, the opioid-induced hyperalgesia result with CXCR4 (Wilson et al. 2011) is “counteract opioid-induced hyperalgesia”.
On to `CCCCCC1C(=O)Nc2c(Oc3ccc(OC)cc3OC)cc(OC)cc2C1=O` (stereo not shown) [BKT300-3-C5, reference compound], for which, in the test with U937 cells [1] (concentration lower than 0.5 μM, FIG. 8B), the cells death result is “did not induce cells death”.
As to `CCCCCc1c(O)c2cc(OC)cc(Oc3ccc(O)cc3OC)c2[nH]c1=O` [BKT300-N1, 4-hydroxy-8-(4-hydroxy-2-methoxyphenoxy)-6-methoxy-3-pentylquinolin-2(1H)-one], in test [2], the “presence of cleaved caspase-3 (mechanism of induced apoptosis)” value is recorded as “via caspase-3 activation”. Moreover, the tumor growth entry was “substantial reduction and even arrest in tumor growth” in test [3]; “substantial reduction and even arrest in tumor growth” in test [4]; “substantial reduction and even arrest in tumor growth” in [6]. In addition, in the test with H69 cells, the apoptotic cell death result was “induce apoptotic cell death”. Moreover, in the test on H69 cells, the “cell cycle growth arrest” value is recorded as “arrest the growth at the G2M phase”. Also, the cell cycle arrest entry in the test with U937 cells [1] (setting [7]) is listed as “resulted in cell cycle arrest”. Also, the cells death entry in the test on U937 cells [1] (setting [7]) was “induced cells death”. Moreover, in the test with U937 cells [5] (all tested concentrations, FIG. 6A), the “viability of U937 cells as the number of Annexin-V−/PI− viable cells” value is listed as “improved effect”. The “reduction in the percentage of viable cells via apoptosis” value with U937 cells [5] (FIGS. 6A-6B) is “substantially higher effect”. Besides, in the test with HEY-T30 cells (significant at a concentration of 62.5 nM, FIG. 18A), the “level of dead cells” value is given as “increasing the level of dead cells”. Besides, the “percentage of cells at G0/G1 phase” value in the test with HEY-T30 cells (significant at concentration of 125 nM, FIG. 18B) is “reducing the percentage of cells at G0/G1 phase”. Further, in the test on HEY-T30 cells (significant at concentration of 125 nM, FIG. 18C), the “level of cells in G2/M phase” value is listed as “increasing the level of cells in G2/M phase”. Moreover, the “migration of lymphocytic Jurkat cells towards SDF-1” value at SDF-1 is “significantly inhibited”. For the same compound, in the test with HCC SNU449 cells (0.05, 0.1, 0.5, 1 and 10 μM, over BKT300-3-C5, particularly at the lower concentrations, FIGS. 4A-4E), the wound width values entry is given as “improved effect”. In addition, the relative wound area result in the test with HCC SNU449 cells (at 24 hours, already at 0.1 μM, compared to BKT300-3-C5, FIG. 3) is “improved effect”.
`CCCCCc1cc2cc(O)cc(Oc3c(O)cc(O)cc3CCCCC)c2c(=O)o1` [BKT300]: in the test with cancer cells, the cancer cell death entry was “inducing cancer cell death” and the cancer cell migration entry is reported as “inhibiting cancer cell migration”.
